In patent publication US5455229A, “Method for minimizing and containing ischemic and reperfusion injury” (Eli Lilly and Company, priority 1992, dated 1995):

Tests used:
beagle dogs = assay: In vivo assay: myocardial infarct size following coronary artery occlusion (1 hr) and reperfusion (5 hr) in anesthetized dogs; parameters: species or system dog; details: dogs infused with aprotinin, control dogs 37.9±5.4%, P<0.05
Experimental: Adult male beagle dogs weighing approximately 9-14 kg were anesthetized with pentobarbital sodium (30 mg/kg, i.v.). The tracheae were intubated, and the dogs were ventilated with room air delivered from a Harvard respirator (ventilation rate of 16 cycles/min, tidal volume, 25 ml/kg). Body temperature was maintained at 37-°38° C. with a heating pad. Catheters were placed in the left femoral artery and vein for measurement of phasic arterial blood pressure (Starham transducer, P23ID) and i.v. infusion of drug solutions, respectively. Mean arterial blood pressure was calculated as diastolic blood pressure plus 1/3 pulse pressure. Cardiac rate was monitored by a cardiotachometer that was triggered by the systolic pressure pulse, while the pressure rate product was monitored as an index of myocardial oxygen demand. […] Directly measured parameters were recorded continuously on a multichannel oscillograph (Beckman Instruments,Inc., Fullerton Calif.; model R611).
A left thoracotomy was performed at the fifth intercostal space, the heart was suspended in a pericardial cradle, and the left circumflex coronary artery (LCX) was isolated distal to its atrial branch and proximal to any major ventricular branches. Baseline circumflex coronary artery blood flow was measured using a calibrated flowprobe (Carolina Medical Electronics, 6 mm I.C.) connected to a Carolina flowmeter (model FM501). […]

dog = details: Diaz et al., Am. J. Cardiol. 40: 541-549, 1977; cited from earlier work

In the case of aprotinin [reference compound], the “infarct size, % of the left ventricular mass at risk of necrosis” value (beagle dogs) is listed as 24.8±2.4% and the “myocardial ischemic injury associated with coronary artery occlusion” value (dog) is listed as “has been shown to limit myocardial ischemic injury”.
